Measurements taken from ChEMBL document CHEMBL1149159, “Structure-activity relationship of purine ribonucleosides for inhibition of hepatitis C virus RNA-dependent RNA polymerase” (J Med Chem, 2004).

Molecular target: RNA-directed RNA polymerase (Hepacivirus hominis, UniProt O39930)
Assay: Inhibition HCV NS5B-mediated RNA synthesis
Assay type: functional

RNA-directed RNA polymerase, sequence (O39930 whole entry): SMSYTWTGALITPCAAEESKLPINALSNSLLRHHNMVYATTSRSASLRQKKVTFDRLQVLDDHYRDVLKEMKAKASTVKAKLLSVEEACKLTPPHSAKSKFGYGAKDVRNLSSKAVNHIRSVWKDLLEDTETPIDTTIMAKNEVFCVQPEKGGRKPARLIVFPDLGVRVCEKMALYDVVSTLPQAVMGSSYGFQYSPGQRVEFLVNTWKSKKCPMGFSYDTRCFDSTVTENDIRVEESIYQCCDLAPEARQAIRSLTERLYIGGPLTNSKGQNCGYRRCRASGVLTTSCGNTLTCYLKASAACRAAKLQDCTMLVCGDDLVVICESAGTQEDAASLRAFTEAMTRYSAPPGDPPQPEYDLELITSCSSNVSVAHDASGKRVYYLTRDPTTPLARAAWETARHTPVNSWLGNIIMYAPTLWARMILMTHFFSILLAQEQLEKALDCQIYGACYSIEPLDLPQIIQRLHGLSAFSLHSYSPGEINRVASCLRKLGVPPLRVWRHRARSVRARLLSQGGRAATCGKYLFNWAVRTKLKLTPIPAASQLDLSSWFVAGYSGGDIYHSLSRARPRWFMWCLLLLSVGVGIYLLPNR

Row | Compound | IC50 [µM]
1 | C[C@]1(O)[C@@H](CO)O[C@@H](n2cnc3c(N)ncnc32)[C@@H]1O | > 50
2 | C[C@@]1(O)[C@H](O)[C@@H](CO)O[C@H]1n1cnc2c(N)nc(N)nc21 | 2.6
3 | C[C@@]1(O)[C@H](O)[C@@H](CO)O[C@H]1n1cnc2cnc(N)nc21 | 46
4 | CO[C@]1(C)[C@H](O)[C@@H](CO)O[C@H]1n1cnc2c(N)ncnc21 | > 50
5 | CO[C@@H]1[C@H](O)[C@@H](CO)O[C@H]1n1cnc2c(=O)[nH]c(N)nc21 | 1.6
6 | CC[C@@]1(O)[C@H](O)[C@@H](CO)O[C@H]1n1cnc2c(N)ncnc21 | > 50
7 | Nc1nc2c(ncn2[C@@H]2O[C@H](CO)[C@@H](F)[C@H]2O)c(=O)[nH]1 | 1.8
8 | C[C@@]1(O)[C@@H](CO)O[C@@H](n2cnc3c(N)ncnc32)[C@@H]1O | > 50
9 | Nc1ncnc2c1ncn2[C@@H]1O[C@H](CO)[C@@H](F)[C@H]1O | 28
10 | CO[C@@H]1[C@H](O)[C@@H](CO)O[C@H]1n1cnc2c(N)ncnc21 | 47
11 | Nc1nc2c(ncn2[C@@H]2O[C@H](CO)C[C@H]2O)c(=O)[nH]1 | 0.6
12 | C[C@@]1(O)[C@H](O)[C@@H](CO)O[C@H]1n1cnc2c(N)ncnc21 | 1.9
13 | C[C@]1(O)[C@H](O)[C@@H](CO)O[C@H]1n1cnc2c(N)ncnc21 | > 50
14 | C[C@@]1(O)[C@H](O)[C@@H](CO)O[C@H]1n1cnc2c(=O)[nH]cnc21 | 4
15 | Nc1nc2c(ncn2[C@@H]2O[C@H](CO)C(O)[C@H]2O)c(=O)[nH]1 (single isomer, unassigned) | 20
16 | C[C@@]1(O)[C@H](O)[C@@H](CO)O[C@H]1n1cnc2c(=O)[nH]c(N)nc21 [2'-B-METHYL-GUANOSINE] | 0.13
17 | Nc1ncnc2c1ncn2[C@@H]1O[C@H](CO)[C@@H](O)[C@H]1F [2'-BETA-FLUORO-2',3'-DEOXYADENOSINE] | > 50
18 | Nc1ncnc2c1ncn2[C@@H]1O[C@H](CO)C[C@H]1O [CORDYCEPIN] | 22
19 | Nc1ncnc2c1ncn2[C@@H]1O[C@H](CO)[C@@H](O)[C@@H]1O [VIDARABINE] | 50
